Patent US20240246908A1 (ORION CORPORATION, priority 2021, published 2024)

What follows are compounds tested on YAP-TEAD (assay: TEAD inhibition, Hippo Pathway TEAD Reporter MCF-7 luciferase assay). Settings: Homo sapiens, MCF7, 24 h, Hippo Pathway TEAD Reporter MCF-7 cells, luciferase activity after 24 h; read-out: IC50 of the test compounds on YAP-TEAD inhibition (Group).
Assay type: cell-based
Summary of the method: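 MCF-7 cells carrying a TEAD-responsive firefly luciferase reporter, with nuclear YAP1 driving constitutive expression, were treated the day after plating with compounds (11 concentrations, 4 replicates; 0.1% DMSO control). After 24 h, luciferase was read by ONE-Glo luminescence and IC50 determined.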

| SMILES | IC50 [nM] |
| --- | --- |
| COc1ccc(Oc2ccc(C(F)(F)F)cc2)cc1NC(=O)C1CCC(=O)N1C(C)C (stereo not drawn) [Compound 81, 1-Isopropyl-N-(2-methoxy-5-(4-(trifluoromethyl)phenoxy)phenyl)-5-oxo-pyrrolidine-2-carboxamide] | < 50 |
| COc1ccc(Oc2ccc(F)c(F)c2)cc1NC(=O)C1CCC(=O)N1C(C)C (stereo not drawn) [Compound 82, N-(5-(3,4-Difluorophenoxy)-2-methoxyphenyl)-1-isopropyl-5-oxopyrrolidine-2-carboxamide] | 50 to 300 |
| CN1C(=O)CCC1C(=O)Nc1cc(Oc2ccc(C(F)(F)F)cc2)ccc1-c1nnco1 (stereo not drawn) [Compound 83, N-(2-(1,3,4-Oxadiazol-2-yl)-5-(4-(trifluoromethyl)phenoxy)phenyl)-1-methyl-5-oxopyrrolidine-2-carboxamide] | 50 to 300 |
| CN1C(=O)CCC1C(=O)Nc1cc(Oc2cccc(C(F)(F)F)c2)ccc1-c1nnco1 (stereo not drawn) [Compound 84, N-(2-(1,3,4-Oxadiazol-2-yl)-5-(3-(trifluoromethyl)phenoxy)phenyl)-1-methyl-5-oxopyrrolidine-2-carboxamide] | 301 to 2000 |
| CN1C(=O)CCC1C(=O)Nc1cc(Oc2ccc(F)c(F)c2)ccc1-c1ccn(C)n1 (stereo not drawn) [Compound 85, N-(5-(3,4-Difluorophenoxy)-2-(1-methyl-1H-pyrazol-3-yl)phenyl)-1-methyl-5-oxopyrrolidine-2-carboxamide] | 301 to 2000 |
| CN1C(=O)CCC1C(=O)Nc1cc(Oc2ccc(F)c(F)c2)ccc1-c1ccnn1C (stereo not drawn) [Compound 86, N-(5-(3,4-Difluorophenoxy)-2-(1-methyl-1H-pyrazol-5-yl)phenyl)-1-methyl-5-oxopyrrolidine-2-carboxamide] | 50 to 300 |
| COc1ccc(Oc2ccc(C(F)(F)F)cc2)cc1NC(=O)C1COC(=O)N1C (stereo not drawn) [Compound 87, N-(2-Methoxy-5-(4-(trifluoromethyl)phenoxy)phenyl)-3-methyl-2-oxo-oxazolidine-4-carboxamide] | < 50 |
| COc1ccc(Oc2ccc(F)c(F)c2)cc1NC(=O)C1COC(=O)N1C (stereo not drawn) [Compound 88, N-(5-(3,4-Difluorophenoxy)-2-methoxyphenyl)-3-methyl-2-oxooxazolidine-4-carboxamide] | < 50 |
| COc1ccc(COc2ccc(F)c(F)c2)cc1NC(=O)C1COC(=O)N1C (stereo not drawn) [Compound 89, N-(5-((3,4-Difluorophenoxy)methyl)-2-methoxyphenyl)-3-methyl-2-oxo-oxazolidine-4-carboxamide] | 50 to 300 |
| COc1ccc(COc2cccc(F)c2)cc1NC(=O)C1COC(=O)N1C (stereo not drawn) [Compound 90, N-(5-((3-Fluorophenoxy)methyl)-2-methoxyphenyl)-3-methyl-2-oxo-oxazolidine-4-carboxamide] | 50 to 300 |
| COc1ccc(Oc2ccc(C(F)(F)F)cc2)cc1NC(=O)C1CCC(=S)N1C (stereo not drawn) [Compound 91, N-(2-Methoxy-5-(4-(trifluoromethyl)phenoxy)phenyl)-1-methyl-5-thioxo-pyrrolidine-2-carboxamide] | < 50 |
| COc1ccc(Oc2ccc(C(F)(F)F)cc2)cc1NC(=O)C1CCC(=S)N1 (stereo not drawn) [Compound 92, N-(2-Methoxy-5-(4-(trifluoromethyl)phenoxy)phenyl)-5-thioxopyrrolidine-2-carboxamide] | < 50 |
| COc1ccc(Oc2ccc(F)c(F)c2)cc1NC(=O)[C@H]1CCC(=O)N1C [Compound 93, (R)—N-(5-(3,4-Difluorophenoxy)-2-methoxyphenyl)-1-methyl-5-oxopyrrolidine-2-carboxamide] | < 50 |
| COc1ccc(Oc2ccc(F)c(F)c2)cc1NC(=O)[C@@H]1CCC(=O)N1C [Compound 94, (S)—N-(5-(3,4-Difluorophenoxy)-2-methoxyphenyl)-1-methyl-5-oxopyrrolidine-2-carboxamide] | 50 to 300 |
| COc1ccc(COc2ccc(F)c(F)c2)cc1NC(=O)C1CCC(=O)N1C (stereo not drawn) [Compound 95, N-(5-((3,4-Difluorophenoxy)methyl)-2-methoxyphenyl)-1-methyl-5-oxo-pyrrolidine-2-carboxamide] | 50 to 300 |
| COc1ccc(OC2CC3CCC2C3)cc1NC(=O)C1CCC(=O)N1C (stereo not drawn) [Compound 96, N-(5-(Bicyclo[2.2.1]heptan-2-yloxy)-2-methoxyphenyl)-1-methyl-5-oxo-pyrrolidine-2-carboxamide] | 50 to 300 |
| CN1C(=O)CC[C@@H]1C(=O)Nc1cc(Oc2ccc(F)c(F)c2)cc2c1OCCO2 [Compound 97, (R)—N-(7-(3,4-Difluorophenoxy)-2,3-dihydrobenzo[b][1,4]dioxin-5-yl)-1-methyl-5-oxopyrrolidine-2-carboxamide] | < 50 |
| CN1C(=O)CC[C@H]1C(=O)Nc1cc(Oc2ccc(F)c(F)c2)cc2c1OCCO2 [Compound 98, (S)—N-(7-(3,4-Difluorophenoxy)-2,3-dihydrobenzo[b][1,4]dioxin-5-yl)-1-methyl-5-oxopyrrolidine-2-carboxamide] | 50 to 300 |

| SMILES | IC50 [nM] |
| --- | --- |
| CN1C(=O)CC[C@@H]1C(=O)Nc1cc(Oc2ccc(C(F)(F)F)cc2)cc2c1OCC2 [Compound 99, (R)-1-Methyl-5-oxo-N-(5-(4-(trifluoromethyl)phenoxy)-2,3-dihydrobenzofuran-7-yl)pyrrolidine-2-carboxamide] | < 50 |
| CN1C(=O)CC[C@H]1C(=O)Nc1cc(Oc2ccc(F)c(F)c2)cc2c1OCC2 [Compound 100, (S)—N-(5-(3,4-Difluorophenoxy)-2,3-dihydrobenzofuran-7-yl)-1-methyl-5-oxopyrrolidine-2-carboxamide] | < 50 |
| COc1ccc(Oc2ccc(C(F)(F)F)cc2)cc1NC(=O)[C@H]1COC(=O)N1C [Compound 101, (R)—N-(2-Methoxy-5-(4-(trifluoromethyl)phenoxy)phenyl)-3-methyl-2-oxooxazolidine-4-carboxamide] | < 50 |
| COc1ccc(Oc2ccc(C(F)(F)F)cc2)cc1NC(=O)[C@@H]1COC(=O)N1C [Compound 102, (S)—N-(2-Methoxy-5-(4-(trifluoromethyl)phenoxy)phenyl)-3-methyl-2-oxooxazolidine-4-carboxamide] | < 50 |
| COc1ccc(O[C@H]2CC[C@H](C(F)(F)F)CC2)cc1NC(=O)[C@H]1CCC(=O)N1C [Compound 103, (R)—N-(2-Methoxy-5-(((trans)-4-(trifluoromethyl)cyclohexyl)oxy)phenyl)-1-methyl-5-oxopyrrolidine-2-carboxamide] | < 50 |
| COc1ccc(OC2CCC(F)(F)CC2)cc1NC(=O)C1COC(=O)N1C (stereo not drawn) [Compound 104, N-(5-((4,4-Difluorocyclohexyl)oxy)-2-methoxyphenyl)-3-methyl-2-oxo-oxazolidine-4-carboxamide] | 50 to 300 |
| COc1ccc(O[C@H]2CC[C@H](C(F)(F)F)CC2)cc1NC(=O)[C@@H]1CCC(=O)N1C [Compound 105, (S)—N-(2-Methoxy-5-(((trans)-4-(trifluoromethyl)cyclohexyl)oxy)phenyl)-1-methyl-5-oxopyrrolidine-2-carboxamide] | < 50 |
| CN1C(=O)CCC1C(=O)Nc1cc(Oc2cccc(C(F)(F)F)c2)cc2c1NC(=O)CO2 (stereo not drawn) [Compound 106, 1-Methyl-5-oxo-N-(3-oxo-7-(3-(trifluoromethyl)phenoxy)-3,4-dihydro-2H-benzo[b][1,4]oxazin-5-yl)pyrrolidine-2-carboxamide] | 301 to 2000 |
| CN1C(=O)CC[C@H]1C(=O)Nc1cc(O[C@H]2CC[C@@H](C(F)(F)F)CC2)cc2c1OCC2 [Compound 107, (S)-1-Methyl-5-oxo-N-(5-(((cis)-4-(trifluoromethyl)cyclohexyl)oxy)-2,3-dihydrobenzofuran-7-yl)pyrrolidine-2-carboxamide] | < 50 |
| CN1C(=O)CC[C@@H]1C(=O)Nc1cc(O[C@H]2CC[C@@H](C(F)(F)F)CC2)cc2c1OCC2 [Compound 108, (R)-1-Methyl-5-oxo-N-(5-(((cis)-4-(trifluoromethyl)cyclohexyl)oxy)-2,3-dihydrobenzofuran-7-yl)pyrrolidine-2-carboxamide] | 50 to 300 |
| O=C(Nc1cc(Oc2ccc(C(F)(F)F)cc2)cc2c1OCC2)C1CCC(=O)N1C1CC1 (stereo not drawn) [Compound 109, 1-Cyclopropyl-5-oxo-N-(5-(4-(trifluoromethyl)phenoxy)-2,3-dihydro-benzofuran-7-yl)pyrrolidine-2-carboxamide] | < 50 |
| COc1ccc(Oc2ccc(C(F)(F)F)cc2)cc1NC(=O)C1CCC(=O)N1C1CC1 (stereo not drawn) [Compound 110, 1-Cyclopropyl-N-(2-methoxy-5-(4-(trifluoromethyl)phenoxy)phenyl)-5-oxo-pyrrolidine-2-carboxamide] | < 50 |
| COc1ccc(Oc2ccc(F)c(F)c2)cc1NC(=O)C1CCC(=O)N1C1CC1 (stereo not drawn) [Compound 111, 1-Cyclopropyl-N-(5-(3,4-difluorophenoxy)-2-methoxyphenyl)-5-oxopyrrolidine-2-carboxamide] | 50 to 300 |
| COc1ccc(Oc2ccc(OC(F)(F)F)cn2)cc1NC(=O)C1COC(=O)N1C (stereo not drawn) [Compound 112, N-(2-Methoxy-5-((5-(trifluoromethoxy)pyridin-2-yl)oxy)phenyl)-3-methyl-2-oxooxazolidine-4-carboxamide] | 50 to 300 |
| CN1C(=O)CCC1C(=O)Nc1cc(COC2CCC(F)(F)CC2)cc2c1OCCO2 (stereo not drawn) [Compound 113, N-(7-(((4,4-Difluorocyclohexyl)oxy)methyl)-2,3-dihydrobenzo[b][1,4]dioxin-5-yl)-1-methyl-5-oxopyrrolidine-2-carboxamide] | 301 to 2000 |
| O=C(Nc1cc(Oc2ccc(C(F)(F)F)cc2)cc2c1OCCO2)C1CCC(=O)N1C1CC1 (stereo not drawn) [Compound 114, 1-Cyclopropyl-5-oxo-N-(7-(4-(trifluoromethyl)phenoxy)-2,3-dihydrobenzo[b][1,4]dioxin-5-yl)pyrrolidine-2-carboxamide] | < 50 |
| COc1ccc(Oc2ccc(OC(F)(F)F)cn2)cc1NC(=O)C1CCC(=O)N1C (stereo not drawn) [Compound 115, N-(2-Methoxy-5-((5-(trifluoromethoxy)pyridin-2-yl)oxy)phenyl)-1-methyl-5-oxopyrrolidine-2-carboxamide] | 50 to 300 |
| COc1ccc(Oc2ccc(C(F)(F)F)cc2)cc1NC(=O)C1CCS(=O)(=O)C1 (stereo not drawn) [Compound 116, N-(2-Methoxy-5-(4-(trifluoromethyl)phenoxy)phenyl)tetrahydrothiophene-3-carboxamide 1,1-dioxide] | 50 to 300 |
